According to patent US20210346665A1, “CONDUCTIVE MICRONEEDLE PATCH FOR ACTIVE AGENT DELIVERY” (Singapore Health Services Pte Ltd, priority 2018, published 2021):
Counter-ions that a name gives are not always drawn.

Assay: drug loading and release from MeHA MN patches in PBS
Assay type: physicochemical
Protocol: The drug loading capabilities of MeHA MNs was investigated by using model drugs of different molecular weights, mainly fluorescein isothiocyanate (FITC), FITC-Dextran and doxorubicin hydrochloride (Dox). The innate ability of the MeHA MN arrays to absorb fluid is taken advantage of to load the drug molecules into the MN tips. All three drugs are dissolved in PBS which were then used to equilibrate MeHA MN patches. After 10 minutes of incubation with the drug solution, the MNs were left to dry in the fumehood (FIG. 14). The amount of drug encapsulated in the MN was determined by immersing the drug loaded MeHA in 1×PBS. By obtaining a 50 μL of the solution at various time points, the fluorescence intensity was measured to determine the drug release profile of the three different drug molecules.
Next, the release profiles of drugs from the MeHA MN patches were examined.

Row | released from the MN patches (MeHA MN patches, 1×PBS, within 30 minutes) [%] | Molecule | loading into the MN tips through swelling (MeHA MN, 10 minutes incubation with drug solution in PBS)
1 | 50 | COc1cccc2c1C(=O)c1c(O)c3c(c(O)c1C2=O)C[C@@](O)(C(=O)CO)C[C@@H]3O[C@H]1C[C@H](N)[C@H](O)[C@H](C)O1 [Dox, doxorubicin hydrochloride] | 
2 |  | fluorescein isothiocyanate [FITC] | easily loaded
